# Source: ChEMBL document CHEMBL3804804, “Synthesis and antimycobacterial activity of N-(2-aminopurin-6-yl) and N-(purin-6-yl) amino acids and dipeptides” (Bioorg Med Chem Lett, 2016)
# System: Mycobacterium tuberculosis
# Assay: Antimycobacterial activity against multidrug-resistant Mycobacterium tuberculosis harbouring Beijing genotype with combination of mutations of Ser 53-Leu 315 and Ser-Thr in rpoB and katG genes after 10 days by micro broth dilution method
# Type: functional
row,Compound,MIC
1,O.O=C(O)CC[C@H](NC(=O)CNc1ncnc2[nH]cnc12)C(=O)O,0.7 µg/mL
2,CSCC[C@H](NC(=O)CNc1nc(N)nc2[nH]cnc12)C(=O)O.O,3.1 µg/mL
3,CC(=O)Nc1nc(NCC(=O)O)c2nc[nH]c2n1,0.7 µg/mL
4,COC(=O)[C@H](CCSC)NC(=O)CNc1nc(NC(C)=O)nc2[nH]cnc12,3.1 µg/mL
5,COC(=O)[C@H](Cc1ccccc1)NC(=O)CNc1ncnc2[nH]cnc12,1.5 µg/mL
6,CC(C)[C@H](Nc1nc(N)nc2[nH]cnc12)C(=O)O,6.25 µg/mL
7,CC(=O)Nc1nc(N2CCC[C@H]2C(=O)OC(C)(C)C)c2nc[nH]c2n1,6.25 µg/mL
8,Nc1nc(NCC(=O)N[C@@H](CCC(=O)O)C(=O)O)c2nc[nH]c2n1,0.7 µg/mL
9,CC1COc2c(N3CCN(C)CC3)c(F)cc3c(=O)c(C(=O)O)cn1c23 (configuration not stated) [OFLOXACIN],0.1 µg/mL
10,COC(=O)CNc1nc(N)nc2[nH]cnc12.Cl.Cl,6.25 µg/mL

# System: not listed separately
# Assay: Selectivity index, ratio of IC50 for human FEH cells to MIC for multidrug-resistant Mycobacterium tuberculosis
# Type: toxicity, cell-based
row,Compound,selectivity ratio
1,O.O=C(O)CC[C@H](NC(=O)CNc1ncnc2[nH]cnc12)C(=O)O,> 25
2,Nc1nc(NCC(=O)N[C@@H](CCC(=O)O)C(=O)O)c2nc[nH]c2n1,> 25
